In PubChem BioAssay (NCI):
Values after ≈ are worked out from the molar mass of the structure shown. Values joined by “and” are separate entries in the source; they are usually repeats but may differ in a detail not shown here. Equal entries are not always repeated.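 96-well plates; 48 h exposure; 5 concentrations. Endpoints by linear interpolation between flanking doses. Not reached: highest tested concentration assigned. GI50 is the concentration that inhibits growth by half. TGI: total growth inhibition.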

Legend:
Assay in all cases: inhibition of tumour cell growth, NCI panel, 48 h
DMS 273 small cell lung = system: DMS 273 small cell lung
XF 498 CNS = system: XF 498 CNS
HOP-18 NSCLC = system: HOP-18 NSCLC
RXF-631 renal = system: RXF-631 renal
NCI/ADR-RES ovarian = system: NCI/ADR-RES ovarian
BT-549 breast = system: BT-549 breast
MDA-N = system: MDA-N

| SMILES | TGI (DMS 273 small cell lung) [µM] | TGI (XF 498 CNS) [µM] | GI50 (NCI/ADR-RES ovarian) | TGI (NCI/ADR-RES ovarian) | GI50 (BT-549 breast) | TGI (BT-549 breast) | also measured |
| --- | --- | --- | --- | --- | --- | --- | --- |
| CCCCCCCCCC(=O)N[C@H]1CCc2cc(OC)c(OC)c(OC)c2-c2ccc(SC)c(=O)cc21 | 0.295 | 0.0693 | – | – | – | – | – |
| O=c1c2cccnc2ncn1CCCN1CCOCC1 | > 100 | > 100 | – | – | – | – | – |
| N#Cc1nc(Nc2ccc([N+](=O)[O-])cc2)sc1N | > 100 | > 100 | – | – | – | – | TGI (HOP-18 NSCLC): > 100 µM; TGI (RXF-631 renal): > 75 µM |
| COc1ccc(-c2[nH]ncc2-c2cc(OC)c(OC)c(OC)c2)cc1 | – | – | < 0.01 µM | 1.93 µM | 0.0143 µM | 4.45 µM | – |
| CCOC(=O)C1(C(=O)OCC)CC=C(C)CC12C(=O)Nc1ccccc12 (stereo not given) | > 100 | > 100 | – | – | – | – | TGI (HOP-18 NSCLC): > 100 µM |
| CN(C)CCCC(=O)Nc1ccc(Cn2nnc3c2C(=O)c2nnn(Cc4ccc(NC(=O)CCCN(C)C)cc4)c2C3=O)cc1 | – | – | > 100 µM | > 100 µM | 13.8 µM | 29.8 µM | – |
| CC(C)CC(=O)CC(O)C(Cl)(Cl)Cl (stereo not given) | – | – | – | > 100 µM | – | > 100 µM | TGI (MDA-N): > 100 µM |
| CC1=C(c2cc(C(=O)Nc3cccc(C(F)(F)F)c3)nc(NC#N)n2)Sc2ccccc2N1 | > 100 | – | – | – | – | – | TGI (HOP-18 NSCLC): > 100 µM; TGI (RXF-631 renal): > 100 µM |
| COC(=O)[C@]12CC[C@@H](C)[C@H](C)[C@@H]1C1=CC[C@@H]3[C@@]4(C)C=C(O)C(=O)C(C)=C4CC[C@@]3(C)[C@]1(C)CC2 | – | – | 12.7 µM | 31.7 µM | 15.5 µM | 37.4 µM | – |
| Clc1ccc(Nc2nc3ccccc3c3occc23)cc1 | – | – | 8.7 µM | 15.6 µM | 8.28 µM | 15.2 µM | – |
| CC(C)(C)C(=O)OCC(COC(=O)C(C)(C)C)[N+](=O)[O-] | > 100 | > 100 | – | – | – | – | – |
| COc1ccc(N2C(=O)C3c4[nH]c5ccccc5c4C4CCC(C(C)(C)C)CC4C3C2=O)cc1OC (stereo not given) | 31.2 | 34.7 | – | – | – | – | TGI (HOP-18 NSCLC): 40.8 µM |
| O=C1CCC(=O)C12CCc1cccc(O)c12 | > 100 | > 100 | – | – | – | – | TGI (HOP-18 NSCLC): > 100 µM |
| CCc1nc(N)nc(N)c1-c1ccc(Cl)c(N=NN(C)C)c1 | – | – | – | > 100 µM | – | > 94.8 µM | TGI (MDA-N): > 100 µM |
| COc1ccc(-c2nn(-c3cccc(NC(=O)Nc4cccc(C(F)(F)F)c4)c3)cc2-c2ccncc2)cc1Cl | – | – | 2.29 µM | > 100 µM | 1.68 µM | 4.55 µM | – |
| COC1(OC)c2ccccc2C2(O)c3ccccc3C(=O)C12 (stereo not given) | > 100 | 58.8 | – | – | – | – | TGI (HOP-18 NSCLC): > 100 µM |
| C[C@@]12CCC[C@@](C)(C(=O)O)C1CC[C@@]13CC(=O)[C@@](CO)(CCC12)C3 (stereo not given in full) | – | – | > 100 µM | > 100 µM | > 100 µM | > 100 µM | – |
| Cn1cnc([N+](=O)[O-])c1Sc1nnc(C(F)(F)F)n1C | 87.5 | – | – | – | – | – | TGI (HOP-18 NSCLC): 76.2 µM; TGI (RXF-631 renal): 39.6 µM |
| COc1ccc(/C=C/C(C(=O)O)C(=O)O)cc1 | > 100 | > 100 | – | – | – | – | – |
| CCc1cccc(C(C)CC)c1NC(=O)CC1C(=O)Nc2ccccc2S1=O (stereo not given) | > 100 | – | – | – | – | – | TGI (RXF-631 renal): > 100 µM |

| SMILES | TGI (DMS 273 small cell lung) [µM] | TGI (XF 498 CNS) [µM] | GI50 (NCI/ADR-RES ovarian) | TGI (NCI/ADR-RES ovarian) | GI50 (BT-549 breast) | TGI (BT-549 breast) | also measured |
| --- | --- | --- | --- | --- | --- | --- | --- |
| C=C1C(=O)O[C@H]2[C@H]1CC(=O)/C(C)=C\CC[C@@]1(C)O[C@@H]21 | – | – | 1.1 µg/mL | 4.45 µg/mL | 3.41 µg/mL | 7 µg/mL | GI50 (MDA-N): 3.58 µg/mL (≈ 13.7 µM); TGI (MDA-N): 7.87 µg/mL |
| CCN1CCCCC(=N\O)/C(=N/O)CCCC1 | – | – | – | > 100 µM | – | > 100 µM | TGI (MDA-N): > 100 µM |
| Nc1nc(Nc2ccc3c(c2)CCC(N2CCCC2)CC3)nn1-c1cc2c(nn1)-c1ccccc1CCC2 (stereo not given) | – | – | – | – | 1.52 µM | 3.01 µM | – |
| CN(C)CCNC(=O)c1cccc2c1nc(-c1ccccn1)c1ccccc12 | 29.9 | – | – | – | – | – | TGI (HOP-18 NSCLC): 96.8 µM |
| Nc1c(O)c(S(=O)(=O)O)c(O)c2c1C(=O)c1ccccc1C2=O | – | – | 2.99 µM | 13.9 µM | 2.78 µM | 8.94 µM | – |
| COP1(=S)OCC2CCC[C@@H]2O1 (stereo not given in full) | – | – | – | > 100 µM | – | > 100 µM | TGI (MDA-N): > 100 µM |
| COc1cccc(C2C(C#N)=C(N)Oc3cc(OC)ccc32)c1 (stereo not given) | – | – | 0.0184 µM | – | 0.106 µM | 17 µM | – |
| N#Cc1ccc2oc3ccc(C#N)cc3c(=O)c2c1 | – | – | – | > 100 µM | – | 53.7 µM | TGI (MDA-N): 31.9 µM |
| Oc1ccc(-c2nc3ccc4[nH]ncc4c3c3c2CCCC3)c2cccnc12 | – | – | 0.167 µM | 4.61 µM | 0.421 µM | 2.58 µM | – |
| COc1ccc(S(=O)(=O)N/N=C(\C)CN2C(=O)c3ccccc3C2=O)cc1 | > 100 | – | – | – | – | – | TGI (HOP-18 NSCLC): > 100 µM; TGI (RXF-631 renal): > 100 µM |
| CC1(CO)C(=O)OC12CCCCC2 (stereo not given) | > 100 | > 100 | – | – | – | – | TGI (RXF-631 renal): > 100 µM |
| COc1ccc(CCC2NCCc3cc(OC)c(OC)cc32)cc1 (stereo not given) | – | > 100 | – | – | – | – | TGI (HOP-18 NSCLC): > 100 µM |
| COc1cc(/C=C/C(=O)c2cc(OC)c(OC)c(OC)c2)cc(OC)c1OC | – | – | – | – | 2.48 µM | 9.26 µM | – |
| C=CCNc1cccc2c1C(=O)c1ccccc1C2(O)CC=C (stereo not given) | – | – | 22.4 µM | 58.4 µM | 19.3 µM | 42.7 µM | – |
| C=C1C(=O)O[C@H]2[C@H]1CC/C(COC(=O)C(=O)c1cn(C)c3ccc(OC)cc13)=C\CC[C@@]1(C)O[C@@H]21 | – | – | 4.97 µM | 25.8 µM | 1.75 µM | 3.28 µM | – |
| COC(=O)c1cc2c(cc1Cl)SC(N(N(C)C)S(=O)(=O)c1ccc(Cl)cc1)=NS2(=O)=O | – | – | 15.2 µM | 39.9 µM | – | – | – |
| Cc1nc2ccc(NCCN(C)C)c3c(=O)c4cc(O)ccc4n1c23 | 1.76 | 11.2 | – | 7.29 µM | – | 19 µM | TGI (MDA-N): 13.7 µM; TGI (RXF-631 renal): 1.96 µM |
| O=C1C(=O)c2c(nc3ncccn23)-c2ccccc21 | – | – | 0.301 µM | 0.962 µM | 0.154 µM | 0.291 µM | – |
| CC(=O)OC1=C2C(CC3C4CC=C5CC(OC(C)=O)CCC5(C)C4CCC23C)C2C(=O)N(Cc3ccccc3)C(=O)C2C1 (stereo not given) | – | – | 5.53 µM | 28.2 µM | 3.53 µM | 13.5 µM | – |
| COc1ccc(Cn2cc(Cn3c(=O)c(-c4nc5ccccc5[nH]4)cc4ccccc43)nn2)c(OC)c1OC | – | – | 1.1 µM and 1.83 µM | 3.96 µM and 15.8 µM | 0.502 µM | 1.52 µM | – |
